Assay results taken from US7691841B2, “Azetidine derivatives as CCR-3 receptor antagonist” (Novartis AG, priority 2004, dated 2010).

Each compound was assayed against T1, human CCR-3 (Homo sapiens, UniProt P51677) (assay: binding of [125I]-human eotaxin to human CCR-3 (SPA assay)). Details: membranes of RBL-2H3 cells stably expressing CCR3; 50 pM [125I]-human eotaxin; 4 hours at room temperature; read-out: IC50 (concentration of test compound at which 50% inhibition of eotaxin binding occurs).
T1 construct: expressed in transfected cells; host or cells: rat basophil leukaemia (RBL-2H3) cells, membranes
T1 sequence (P51677 1-355): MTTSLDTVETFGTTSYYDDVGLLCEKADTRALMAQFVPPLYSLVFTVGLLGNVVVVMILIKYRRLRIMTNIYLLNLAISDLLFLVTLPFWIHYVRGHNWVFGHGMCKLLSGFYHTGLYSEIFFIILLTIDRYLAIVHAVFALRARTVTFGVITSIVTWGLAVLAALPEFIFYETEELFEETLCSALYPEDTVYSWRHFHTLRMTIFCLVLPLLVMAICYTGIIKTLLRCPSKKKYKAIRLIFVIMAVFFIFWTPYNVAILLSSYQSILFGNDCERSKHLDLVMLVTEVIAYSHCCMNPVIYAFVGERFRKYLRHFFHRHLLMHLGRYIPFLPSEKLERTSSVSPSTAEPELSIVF
Method: Compounds of formula I and their pharmaceutically acceptable salts are useful as pharmaceuticals. In particular, they inhibit human chemokine receptor CCR-3. The effect of compounds of the formula I, i.e. agents of the invention, on the binding of human eotaxin to human CCR-3 is determined by the following assay:
Recombinant cells expressing human CCR-3 are captured by wheatgerm agglutinin (WGA) polyvinyltoluidene (PVT) SPA beads (available from Marshal), through a specific interaction between the WGA and carbohydrate residues of glycoproteins on the surface of the cells. [^125I]-human eotaxin (available from Amersham) binds specifically to CCR-3 receptors bringing the [^125I]-human eotaxin in close proximity to the SPA beads. Emitted â-particles from the [^125I]-human eotaxin excite, by its proximity, the fluorophore in the beads and produce light.
Preparation of Assay Buffer: 5.96 g HEPES and 7.0 g sodium chloride are dissolved in distilled water and 1 M aqueous CaCl2 (1 ml) and 1M aqueous MgCl2 (5 ml) are added. The pH is adjusted to 7.6 with NaOH and the solution made to a final volume of 1 l using distilled water. 5 g bovine serum albumin and 0.1 g sodium azide are then dissolved in the solution and the resulting buffer stored at 4° C. A COMPLETE™ protease inhibitor cocktail tablet (available from Boehringer) is added per 50 ml of the buffer on the day of use.
Preparation of Homogenisation Buffer: Tris-base (2.42 g) is dissolved in distilled water, the pH of the solution is adjusted to 7.6 with hydrochloric acid and the solution is diluted with distilled water to a final volume of 1 l. The resulting buffer is stored at 4° C. A COMPLETE™ protease inhibitor cocktail tablet is added per 50 ml of the buffer on the day of use. […]
The assay is performed in a final volume of 250 μl per well of an OPTIPLATE™ microplate (ex Canberra Packard). […] The resulting scintillations are counted using a Canberra Packard TopCount, each well being counted for 1 minute. […]

IC50 [nM] | SMILES
198 | CCOc1ccc2nc(SCC(=O)NCC3CN(Cc4ccc(Cl)c(Cl)c4)C3)sc2c1 [Example 8, N-[1-(3,4-Dichloro-benzyl)-azetidin-3-yl-methyl]-2-(6-ethoxy-benzothiazol-2-ylsulfanyl)-acetamide]
297 | O=C(CNC(=O)c1ccc(Cl)cc1)NCC1CN(Cc2ccc(Cl)c(Cl)c2)C1 [Example 5]
420 | Cc1cc(C(=O)NCC(=O)NCC2CN(Cc3ccc(Cl)c(Cl)c3)C2)c(C)n1Cc1ccncc1 [Example 7]
